Publication PMC11374673, “Discovery of isoquinoline sulfonamides as allosteric gyrase inhibitors with activity against fluoroquinolone-resistant bacteria” (Nature Chemistry, 2024)
≈ marks a conversion by molar mass, not a printed value. Like-named read-outs stand apart in the source and are kept apart here.

Experiments:
E. coli W3110 = experiment: MIC by broth microdilution; format: cell-based, Escherichia coli; details: for MIC: broth microdilution, read-out: MIC E. coli W3110
Procedure: (§1) MIC was determined by broth microdilution. Single-colony cultures were grown to exponential phase (OD600 of 0.5) aerobically at 37 °C. In case of strains from the Keio collection, 50 µg ml^−1 kanamycin was supplemented to the media to ascertain a homogeneous population. The bacterial suspensions were diluted 100-fold in CAMHB and 50 µl was added to a twofold serial dilution series of test compounds (50 µl per well) in polypropylene 96-well microtitre plates to reach a volume of 100 µl. The plates were sealed with breathable membranes and incubated overnight at 37 °C with constant shaking (600 r.p.m.).

K. pneumoniae ATCC 29665 = experiment: MIC by broth microdilution; format: cell-based, Klebsiella pneumoniae; details: read-out: MIC K. pneumoniae ATCC 29665
Procedure: as §1

[1] = Klebsiella pneumoniae, ATCC29665, broth microdilution

Compound | MIC (E. coli W3110; Escherichia coli, W3110, WT) [µM] | MIC (E. coli W3110; WT) [µM] | antimicrobial activity (E. coli W3110; relative to parent compound) | MIC (K. pneumoniae ATCC 29665; [1]) [µM] | MIC (K. pneumoniae ATCC 29665; broth microdilution) [µM]
O=C(NCCNCc1ccc(-c2cccnc2)cc1)c1cccc2cnccc12 [Compound 91] | > 50 | >50 | loss of activity | > 50 | >50
Cc1ccc(-c2ccc(CNCCNS(=O)(=O)c3cccc4cnccc34)cc2)cc1 [Compound 62] | > 50 | >50 |  | > 50 | >50
O=S(=O)(NCCNCc1ccc(-c2ccc(F)cc2)c(Cl)c1)c1cccc2cnccc12 [Compound 86] | 50 (≈ 23.5 µg/mL) |  |  | > 50 | >50
O=S(=O)(NCCNCc1ccc(-c2cc(Cl)cc(Cl)c2)cc1)c1cccc2cnccc12 [Compound 75] | > 50 | >50 |  | > 50 | >50
O=S(=O)(NCCNCc1ccc(-c2ccc3c(c2)OCO3)cc1)c1cccc2cnccc12 [Compound 77] | > 50 | >50 |  | > 50 | >50
N#Cc1ccccc1-c1ccc(CNCCNS(=O)(=O)c2cccc3cnccc23)cc1 [Compound 72] | 25 (≈ 11.1 µg/mL) |  |  | 50 (≈ 22.1 µg/mL) | 
O=S(=O)(NCCNCc1ccc(-c2cccnc2)c(Cl)c1)c1cccc2cnccc12 [Compound 83] | > 50 | >50 |  | > 50 | >50
Nc1cc2c(S(=O)(=O)NCCNCc3ccc(-c4cccnc4)cc3)cccc2cn1 [Compound 55] | > 50 | >50 |  | > 50 | >50
O=S(=O)(NCCNCc1ccc(-c2cccnc2)cc1)c1ccc2cn[nH]c2c1 [Compound 50] | > 50 | >50 |  | > 50 | >50
